Results taken from the supplement of paper PMC10307832.

Each cell line was assayed with CC(C)(C)c1nc(-c2cccc(NS(=O)(=O)c3c(F)cccc3F)c2F)c(-c2ccnc(N)n2)s1 [Dabrafenib] + Cc1nc(NC(=O)N2CCC[C@H]2C(N)=O)sc1-c1ccnc(C(C)(C)C(F)(F)F)c1 [Alpelisib] (partner 2 µM) (assay: relative viability (nuclei count vs DMSO), 5 days (fraction); higher = more cells survive). Conditions: first compound 0.003 µM.
Summary of the method: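 After 5 days of treatment, lung cancer cells in 1536-well plates were fixed and stained in a single step (final 0.05% Triton X-100, 1% formaldehyde, 1 ug/ml Hoechst) and their nuclei counted on 4× images. Treatment had been applied by pin tool the day after seeding as one drug alone or as a fixed anchor-drug dose with five library-drug doses (not always all listed) in √10 steps. Relative viability is the nuclei count of treated wells divided by that of vehicle wells, and values are medians of duplicate plates.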
NCI-H661 was tested, and the relative viability was 0.259. Work on NCI-H1993 yielded a relative viability of 0.689. Cell Line PC-3 [JPC-3] has a relative viability of 1.01. For NCI-H2009, the relative viability was 1.1. With NCI-H2347 the relative viability was 0.561. With NCI-H520 the relative viability was 0.934. LXF-289 showed a relative viability of 1.02. LC-2-ad gave a relative viability of 0.907. 201T showed a relative viability of 1.06. For NCI-H1666, the relative viability was 0.988. NCI-H2023 showed a relative viability of 0.668.

Same assay, conditions: first compound 0.009487 µM
NCI-H1792 was tested, and the relative viability was 0.698. In the case of HCC-15, the relative viability is reported as 0.971. Cell Line LU99A has a relative viability of 0.439. EKVX gave a relative viability of 1.05. In the case of COR-L23, the relative viability is reported as 0.784. NCI-H1437 was tested, and the relative viability was 1. In the case of RERF-LC-KJ, the relative viability is reported as 0.979. Work on NCI-H1734 yielded a relative viability of 0.775. BEN was tested, and the relative viability was 1.16. With NCI-H460 the relative viability was 0.599. Cell Line H3255 has a relative viability of 0.813. SK-LU-1 gave a relative viability of 1. NCI-H1793 showed a relative viability of 0.675. With NCI-H23 the relative viability was 0.787. In the case of SW 1573, the relative viability is reported as 0.931. NCI-H838 was tested, and the relative viability was 1.07. EPLC-272H showed a relative viability of 1.1. For NCI-H3122, the relative viability was 0.774. Cell Line NCI-H1915 has a relative viability of 1.05. With NCI-H727 the relative viability was 0.757. With NCI-H1975 the relative viability was 0.687. In the case of LK-2, the relative viability is reported as 1.14. NCI-H2087 was tested, and the relative viability was 1.12. In the case of LCLC-97TM1, the relative viability is reported as 0.228. Cell Line NCI-H661 has a relative viability of 0.707. For NCI-H2405, the relative viability was 0.768. For NCI-H1993, the relative viability was 0.618. Cell Line PC-3 [JPC-3] has a relative viability of 0.996. In the case of NCI-H2009, the relative viability is reported as 1.08. For NCI-H2347, the relative viability was 1.01. Work on NCI-H520 yielded a relative viability of 0.881. Cell Line LXF-289 has a relative viability of 1.03. NCI-H358 gave a relative viability of 1.01. Cell Line LC-2-ad has a relative viability of 0.824. 201T was tested, and the relative viability was 1.08. With NCI-H2023 the relative viability was 0.614. NCI-H322M showed a relative viability of 0.829.

Same assay, conditions: first compound 0.03 µM
With NCI-H1792 the relative viability was 0.646. Work on HCC-15 yielded a relative viability of 0.909. LU99A showed a relative viability of 0.48. EKVX was tested, and the relative viability was 0.889. COR-L23 showed a relative viability of 0.713. Cell Line NCI-H1437 has a relative viability of 1.04. RERF-LC-KJ was tested, and the relative viability was 0.781. For NCI-H1734, the relative viability was 0.585. NCI-H460 gave a relative viability of 0.394. With H3255 the relative viability was 0.684. In the case of SK-LU-1, the relative viability is reported as 0.869. Cell Line NCI-H1793 has a relative viability of 0.615. With NCI-H23 the relative viability was 0.554. Work on SW 1573 yielded a relative viability of 0.74. NCI-H838 was tested, and the relative viability was 0.861. For EPLC-272H, the relative viability was 0.843. In the case of NCI-H3122, the relative viability is reported as 0.897. NCI-H1915 showed a relative viability of 0.979. Cell Line NCI-H727 has a relative viability of 0.519. For NCI-H1975, the relative viability was 0.635. NCI-H2087 gave a relative viability of 1.11. LCLC-97TM1 showed a relative viability of 0.303. With NCI-H661 the relative viability was 0.382. For NCI-H1993, the relative viability was 0.534. For PC-3 [JPC-3], the relative viability was 1.02. NCI-H2009 was tested, and the relative viability was 1.05. Work on NCI-H2347 yielded a relative viability of 0.887. Cell Line NCI-H520 has a relative viability of 0.708. In the case of LXF-289, the relative viability is reported as 1.02. Work on NCI-H358 yielded a relative viability of 0.735. LC-2-ad was tested, and the relative viability was 0.891. Cell Line 201T has a relative viability of 0.932. Work on NCI-H1666 yielded a relative viability of 0.962. NCI-H2023 gave a relative viability of 0.635.

Same assay, conditions: first compound 0.09487 µM
NCI-H1792 gave a relative viability of 0.598. For HCC-15, the relative viability was 0.912. LU99A was tested, and the relative viability was 0.502. Work on EKVX yielded a relative viability of 0.682. With COR-L23 the relative viability was 0.678. NCI-H1437 gave a relative viability of 1.02. In the case of RERF-LC-KJ, the relative viability is reported as 0.848. Cell Line NCI-H1734 has a relative viability of 0.573. With BEN the relative viability was 0.974. Work on NCI-H460 yielded a relative viability of 0.567. Cell Line H3255 has a relative viability of 0.669. Work on SK-LU-1 yielded a relative viability of 0.714. NCI-H1793 was tested, and the relative viability was 0.73. Work on NCI-H23 yielded a relative viability of 0.652. SW 1573 showed a relative viability of 0.663. Work on NCI-H838 yielded a relative viability of 0.93. With EPLC-272H the relative viability was 0.962. NCI-H3122 showed a relative viability of 0.912. Cell Line NCI-H1915 has a relative viability of 0.897. For NCI-H727, the relative viability was 0.647. For NCI-H1975, the relative viability was 0.624. Cell Line LK-2 has a relative viability of 1.35. NCI-H2087 gave a relative viability of 0.823. NCI-H661 gave a relative viability of 0.432. In the case of NCI-H2405, the relative viability is reported as 0.644. For NCI-H1993, the relative viability was 0.686. For PC-3 [JPC-3], the relative viability was 0.907. For NCI-H2009, the relative viability was 0.886. Cell Line NCI-H2347 has a relative viability of 0.965. For NCI-H520, the relative viability was 0.881. Work on LXF-289 yielded a relative viability of 0.991. Cell Line NCI-H358 has a relative viability of 1.01. For LC-2-ad, the relative viability was 0.835. For 201T, the relative viability was 1.01. NCI-H1666 was tested, and the relative viability was 0.973. NCI-H2023 showed a relative viability of 0.614. Cell Line NCI-H322M has a relative viability of 0.629.

Same assay, conditions: first compound 0.3 µM
In the case of NCI-H1792, the relative viability is reported as 0.663. For HCC-15, the relative viability was 0.893. LU99A showed a relative viability of 0.515. With EKVX the relative viability was 1.07. Work on COR-L23 yielded a relative viability of 0.85. With NCI-H1437 the relative viability was 1.06. Work on RERF-LC-KJ yielded a relative viability of 0.953. Work on NCI-H1734 yielded a relative viability of 0.688. Cell Line BEN has a relative viability of 1.17. With NCI-H460 the relative viability was 0.592. H3255 showed a relative viability of 0.664. SK-LU-1 gave a relative viability of 0.691. Work on NCI-H1793 yielded a relative viability of 0.64. For NCI-H23, the relative viability was 0.791. SW 1573 was tested, and the relative viability was 0.669. With NCI-H838 the relative viability was 1.15. Work on EPLC-272H yielded a relative viability of 0.864. NCI-H3122 showed a relative viability of 0.89. In the case of NCI-H1915, the relative viability is reported as 0.984. For NCI-H727, the relative viability was 0.638. NCI-H1975 gave a relative viability of 0.535. Cell Line LK-2 has a relative viability of 1.13. NCI-H2087 gave a relative viability of 0.831. Work on LCLC-97TM1 yielded a relative viability of 0.258. Work on NCI-H661 yielded a relative viability of 0.687. For NCI-H2405, the relative viability was 0.701. Cell Line NCI-H1993 has a relative viability of 0.778. PC-3 [JPC-3] was tested, and the relative viability was 0.956. Cell Line NCI-H2009 has a relative viability of 0.934. Work on NCI-H2347 yielded a relative viability of 0.991. For NCI-H520, the relative viability was 0.914. LXF-289 was tested, and the relative viability was 1.06. Cell Line NCI-H358 has a relative viability of 1.15. LC-2-ad gave a relative viability of 0.882. With 201T the relative viability was 1.05. NCI-H1666 gave a relative viability of 1.11. Work on NCI-H2023 yielded a relative viability of 0.801. Cell Line NCI-H322M has a relative viability of 0.85.
